{"source": "patent US20130059314A1", "about": "“FRET-BASED METHOD FOR THE DETERMINATION OF PROTEIN PHOSPHATASE AND KINASE ACTIVITY” (priority 2010, published 2013)", "key": {"PP1/2A": {"system": "PP1/2A", "assay": "FRET-based phosphatase activity assay in PP1/2A buffer", "assay_type": "biochemical", "settings": "FIG. 9", "text": "FIG. 8 is a graph showing that in the PP1A/2A buffer, a linear range of phosphatase activity not attributable to calcineurin activity was detected.\n(§1) Okadaic acid is a known inhibitor if PP1/2A."}, "Calcineurin": {"system": "Calcineurin", "assay": "FRET-based calcineurin activity assay with okadaic acid", "assay_type": "biochemical", "settings": "similar range of okadaic acid; FIG. 9", "protocol": "as §1\n2. Calcineurin activity was assessed by mixing equal parts lysate, RII or other peptide sample), and reacted for 5-10 mins at 30° C. Control reactions were included that contained known varying amounts of purified calcineurin to calculate a standard curve for each plate.\n3. To stop the reaction, a solution of 10% acetyl nitrile and 0.01% acetic acid solution was added. This step was essential to reduce the pH of the reaction to below 3.5 and enable the binding of the titanium oxide beads to the target peptide.\n4. FLUOR-titanium oxide beads were added with gentle shaking for 5 mins. Phosphorylated-peptides were retained on the beads producing a “shifted” TAMRA signal while non-phosphorylated peptides were unbound.\n5. Reactions were neutralized with 0.35% ammonium hydroxide to return the pH to greater than 7 and the fluorescence of each sample will be read at 450 nm excitation/580 nm emission.\n6. Calcineurin activity was then determined by calculating the slope and y-intercept of the standard curve and then extrapolating calcineurin activity from the fluorescence intensity."}}, "data": [{"smiles": "C=C1[C@@H](O)[C@@H]2O[C@]3(CC[C@H](/C=C/[C@@H](C)[C@@H]4CC(C)=C[C@@]5(O[C@H](C[C@@](C)(O)C(=O)O)CC[C@H]5O)O4)O3)CC[C@H]2O[C@@H]1[C@@H](O)C[C@H](C)[C@H]1O[C@@]2(CCCCO2)CC[C@H]1C", "note": "[okadaic acid]", "values": [{"measurement": "phosphatase activity detected in the PP1/2A buffer, inhibition", "setting": "PP1/2A", "result": "sensitive to inhibition with okadaic acid, in a dose-dependent fashion"}, {"measurement": "calcineurin activity, sensitivity to okadaic acid", "setting": "Calcineurin", "result": "not sensitive to further reduction"}]}]}
